# Where no end group is shown, it is not given here.
# Experiments:
# Format in all cases: in vivo, human
# [1] = test system: patients with BPH who also optionally had LUTS; assay: IPSS obstructive voiding scores in all patients who received FT versus placebo alone (Example Four); settings: Table 4, all FT-treated patients vs placebo alone
# From the text: In a fourth analysis group, patients with BPH who also optionally had LUTS were given an intraprostatic injection of PBS pH 7.2 vehicle alone or of FT, under double-blind conditions by a urologist in an office setting under ultrasound guidance. Patients were followed for 1 to 3 years with regular physical examinations, laboratory tests, and evaluations of symptoms. 217 patients received double blind placebo alone (Group One). 287 patients received double blind FT alone (Group Two). After 1-3 years, 131 patients who received PBS vehicle alone injections received a cross-over injection of FT (Group Three). The final group of 189 patients received blinded FT followed after 1-3 years by a second injection of FT (Group Four). The difference from baseline obstructive voiding scores to follow-up scores were calculated in blinded placebo treated patients (n=217), and compared to groups 2-4 who received FT treatment (n=607).
# [2] = test system: patients with BPH who optionally also had LUTS; assay: IPSS symptom evaluation after a single intraprostatic injection of FT or PBS, double-blind (Example One)
# Protocol: Patients with BPH and who optionally also had LUTS were given an intraprostatic injection of either a) FT (SEQ ID NO. 1 (Ile-Asp-Gln-Gln-Val-Leu-Ser-Arg-Ile-Lys-Leu-Glu-Ile-Lys-Arg-Cys-Leu), 2.5 mg) in phosphate buffered saline pH 7.2 (“PBS”) or b) PBS alone, under double-blind conditions by a urologist in an office setting under ultrasound guidance. Patients were followed for 1 to 6 years with regular physical examinations, laboratory tests, and evaluations of symptoms. Symptomatic evaluation was measured by the International Prostate Symptom Score (IPSS) which is a quantitative scale used to gauge prostatic symptomatic improvement or worsening. The IPSS quantifies the following: 1) incomplete bladder emptying after urination; 2) frequent urination; 3) stopping and starting during urination; 4) urgent need to urinate; 5) weakness of urinary stream; 6) need to push or strain during urination; 7) need to urinate after going to sleep at night (nocturia).
# IPSS items 1, 3, 5 and 6 comprise the obstructive voiding scales and IPSS items 2, 4, and 7 comprise the irritative storage scales. The difference from baseline irritative storage scores to follow-up scores; and from baseline obstructive voiding scores to follow-up scores were calculated in FT treated subjects and Placebo treated controls.
# [3] = test system: patients with BPH who also optionally had LUTS; assay: IPSS obstructive voiding scores after placebo injection followed by cross-over FT injection (Example Three)
# From the text: In a third analysis group, patients with BPH who also optionally had LUTS were given an intraprostatic injection of PBS pH 7.2 vehicle alone, under double-blind conditions by a urologist in an office setting under ultrasound guidance. Patients were followed for 1 to 3 years with regular physical examinations, laboratory tests, and evaluations of symptoms. 131 patients who received PBS vehicle alone injections after 1-3 years received a cross-over injection of FT (SEQ ID NO. 1 (Ile-Asp-Gln-Gln-Val-Leu-Ser-Arg-Ile-Lys-Leu-Glu-Ile-Lys-Arg-Cys-Leu), 2.5 mg) in phosphate buffered saline pH 7.2 (“PBS”). The differences from baseline obstructive voiding scores to follow-up scores were calculated in blinded placebo treated patients (Group One); blinded placebo treated patients who received subsequent conventional oral BPH medications (Group Two), and blinded placebo treated patients who subsequently received FT treatment (Group Three).
# [4] = Table 1, single FT injection vs PBS control
# [5] = general statement in the description
substance,measurement,setting,value
"Ile-Asp-Gln-Gln-Val-Leu-Ser-Arg-Ile-Lys-Leu-Glu-Ile-Lys-Arg-Cys-Leu (IDQQVLSRIKLEIKRCL; also: trifluoroacetate salt) [SEQ ID NO: 1-FT, 17-mer peptide …]",improvement in MOVS measured by IPSS compared to control composition that does not contain FT,[1],more than 105%
same,improvement in MISS measured by IPSS compared to control composition that does not contain FT,[2]; [4],more than 34%
same,improvement in MOVS measured by IPSS compared to control composition that does not contain FT,[2]; [4],more than 46%
same,improvement in MISS measured by IPSS compared to control composition that does not contain FT,[2]; [5],more than 20%
same,improvement in MOVS measured by IPSS compared to control composition that does not contain FT,[2]; [5],more than 30%
same,improvement in MOVS measured by IPSS compared to placebo control followed by conventional oral BPH medication,"[3]; Table 3, cross-over FT injection",more than 320%
same,improvement in MOVS measured by IPSS compared to control composition that does not contain FT,"[3]; Table 3, cross-over FT injection vs placebo alone",more than 104%

# — patent US20200360466A1, “METHOD OF IMPROVING LOWER URINARY TRACT SYMPTOMS” (Nymox Corporation, priority 2019, published 2020)
